Patent US11472803B2, “7-substituted 1-aryl-naphthyridine-3-carboxylic acid amides and use thereof” (Bayer Aktiengesellschaft, priority 2016, dated 2022)

Assays:
human M2 receptor [1] = target: T1, human M2 receptor (Homo sapiens, UniProt P08172); assay: Functional M2-GIRK1/4 activation test: allosteric potency (EC50) and efficiency at EC20 acetylcholine; format: cell-based; conditions: CHO-DUKX-M2-GIRK cells; for EC50: voltage-sensitive dye, acetylcholine at EC20, in some cases mean of two or more determinations
T1 construct: expressed in transfected cells; host or cells: CHO-DUKX (CHO-DUKX-M2-GIRK)
T1 sequence (P08172 1-466): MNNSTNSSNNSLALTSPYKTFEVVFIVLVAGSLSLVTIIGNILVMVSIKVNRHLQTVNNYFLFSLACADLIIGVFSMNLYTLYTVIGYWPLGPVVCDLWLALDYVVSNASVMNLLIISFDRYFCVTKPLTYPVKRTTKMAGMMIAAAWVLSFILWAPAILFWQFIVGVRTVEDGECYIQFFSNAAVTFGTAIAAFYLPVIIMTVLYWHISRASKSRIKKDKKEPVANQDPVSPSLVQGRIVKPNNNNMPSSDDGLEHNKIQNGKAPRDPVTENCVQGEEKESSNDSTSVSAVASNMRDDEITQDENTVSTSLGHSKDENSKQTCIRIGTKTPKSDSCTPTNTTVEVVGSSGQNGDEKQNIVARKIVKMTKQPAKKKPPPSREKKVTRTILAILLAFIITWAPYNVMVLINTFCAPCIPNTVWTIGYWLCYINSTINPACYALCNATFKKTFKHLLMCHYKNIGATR
In short: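 CHO-DUKX cells stably expressing human M2 and GIRK1/4; membrane potential tracked with voltage-sensitive dye at room temperature. Compound added 50 s before acetylcholine at its EC20, then hyperpolarization read 60 s. EC50 (allosteric potency) and efficiency (boost of EC20 ACh effect) from 4-parameter Hill fit.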

human M2 receptor [2] = target: T1, human M2 receptor; assay: Functional M2-GIRK1/4 activation test: positive cooperativity (α factor), shift of acetylcholine dose-response curve; format: cell-based; conditions: Allosteric EC50 shift of acetylcholine 8-point dose-response curve; CHO-DUKX-M2-GIRK cells; α>1 = positive cooperativity
Excerpt: The binding of orthosteric agonists (endogenous ligand: acetylcholine) to the M2 receptor leads to receptor activation or a change in conformation of the receptor in the manner of a shift in equilibrium in favour of the active receptor conformation.
The agonist-induced change in conformation of the M2 receptor results in a Gαi protein activation. […] Under physiological conditions, the result is then a selective efflux of potassium from the cell along the electrochemical gradient. […] The extent of hyperpolarization can therefore be regarded as a measure of the activation of the M2 receptor.
The test cell used is a recombinant CHO-DUKX cell line which has been stably transfected with cDNA coding for the human M2 receptor and with cDNA coding for both GIRK1/4 subunits (CHO-DUKX-M2-GIRK). The transmembrane potential, or the relative changes in the transmembrane potential as a function of substance addition or M2 activation, is determined by means of a voltage-sensitive dye (FLIPR Membrane Potential Assay Kit Blue, Molecular Devices #R8034) and the measurement of cell fluorescence using a proprietary fluorescence imaging instrument.
In accordance with the desired test concentrations, the substances were pre-diluted in loading buffer (see above).
The sowing medium consisted of MEM alpha medium (supplemented with 5% PCS, 2% Glutamax, no genticin).
For the particular measurement, the medium was removed and the cells were laden with the volt-age-sensitive dye for at least 6 min at room temperature (30 μl of loading buffer per 384-well). This was followed, in a first measurement, by the determination of the resting transmembrane potential for a period of 5 sec in 1 sec increments. Thereafter, 10 μl in each case of the test substances diluted in loading buffer are added, followed by a second measurement to determine the transmembrane potential for a period of 50 sec in 1 sec increments.
Finally, the cells are admixed with 10 μl of agonist solution (acetylcholine dissolved in loading buffer). In contrast to the EC50 determination of the test substances (see B-1.1), however, this is not done using one acetylcholine concentration; instead, every concentration of the test substance is combined with an acetylcholine 8-point dose-response curve. […] The M2-mediated GIRK1/4 activation or hyperpolarization is then monitored in a third measurement over a period of 60 sec in 1 sec increments. The shift in the acetylcholine dose-response curve in the presence of increasing concentrations of the test substance is analysed and quantified by means of GraphPad PRISM (Allosteric EC50 shift). […] Positive cooperativity is the hallmark of a positive allosteric modulator. […] The greater the magnitude of the α value, the greater the extent of cooperativity between orthosteric and allosteric.

[3] = boosting of the acetylcholine effect at EC20 acetylcholine concentration

SMILES | EC50 (human M2 receptor [1]) [nM] | Emax (human M2 receptor [1]; [3]) [%] | Cooperativity (alpha factor) (human M2 receptor [2]) | Efficiency (human M2 receptor [1]; [3]) [%]
CC(C)(NC(=O)c1cn(-c2c(F)cc(F)cc2F)c2nc(N3C[C@@H](O)[C@H](O)C3)c(Br)cc2c1=O)C(F)(F)F [Example 159, 6-Bromo-7-[(3R,4R)-3,4-dihydroxypyrrolidin-1-yl]-4-oxo-N-(1,1,1-trifluoro-2-methylpropan-2-yl)-1-(2,4,6-trifluorophenyl)-1,4-dihydro-1,8-naphthyridine-3-carboxamide] | 7.1 | 100 | 45 | 
CC[C@H](NC(=O)c1cn(-c2c(F)cc(F)cc2Cl)c2nc(N3C[C@@H](O)[C@H](O)C3)c(F)cc2c1=O)C(F)(F)F (single isomer, unassigned) [Example 48] | 1.8 |  | 42 | 78
CC(NC(=O)c1cn(-c2ncc(F)cc2F)c2nc(N3CC(O)C(O)C3)c(F)cc2c1=O)C(F)(F)C(F)(F)F (single isomer, unassigned) [Example 45] | 8.47 | 100 | 62 | 
CCN(CC(C)O)c1nc2c(cc1F)c(=O)c(C(=O)N[C@@H](C1CC1)C(F)(F)F)cn2-c1c(F)cc(F)cc1F (mixture of isomers) [Example 65, N-[(1S)-1-Cyclopropyl-2,2,2-trifluoroethyl]-7-[ethyl(2-hydroxypropyl)amino]-6-fluoro-4-oxo-1-(2,4,6-trifluorophenyl)-1,4-dihydro-1,8-naphthyridine-3-carboxamide] | 30 | 89 | 14 | 
O=C(NC12CC(C1)C2)c1cn(-c2c(F)cc(F)cc2F)c2nc(N3C[C@@H](O)[C@H](O)C3)c(F)cc2c1=O [Example 12, N-(bicyclo[1.1.1]pent-1-yl)-7-[(3R,4R)-3,4-dihydroxypyrrolidin-1-yl]-6-fluoro-4-oxo-1-(2,4,6-trifluorophenyl)-1,4-dihydro-1,8-naphthyridine-3-carboxamide] | 20 | 90 | 40 | 
CC(C)C[C@@H](NC(=O)c1cn(-c2c(F)cc(F)cc2F)c2nc(N3C[C@@H](O)[C@H](O)C3)c(F)cc2c1=O)C(F)(F)F [Example 14, 7-[(3R,45)-3,4-dihydroxypyrrolidin-1-yl]-6-fluoro-4-oxo-N-[(2R)-1,1,1-trifluoro-4-methylpentan-2-yl]-1-(2,4,6-trifluorophenyl)-1,4-dihydro-1,8-naphthyridine-3-carboxamide] | 5.5 | 100 | 49 | 
O=C(NC(C1CC1)(C1CC1)C(F)(F)F)c1cn(-c2c(F)cc(F)cc2F)c2nc(N3CC(CO)(CO)C3)c(F)cc2c1=O [Example 210, 7-[3,3-bis(hydroxymethyl)azetidin-1-yl]-N-(1,1-dicyclopropyl-2,2,2-trifluoroethyl)-6-fluoro-4-oxo-1-(2,4,6-trifluorophenyl)-1,4-dihydro-1,8-naphthyridine-3-carboxamide] | 2.1 | 100 | 26 | 
O=C(NC(C1CC1)(C1CC1)C(F)(F)C(F)(F)F)c1cn(-c2c(F)cc(F)cc2F)c2nc(N3CC(CO)(CO)C3)c(F)cc2c1=O [Example 212, 7-[3,3-bis(hydroxymethyl)azetidin-1-yl]-N-(1,1-dicyclopropyl-2,2,3,3,3-pentafluoropropyl)-6-fluoro-4-oxo-1-(2,4,6-trifluorophenyl)-1,4-dihydro-1,8-naphthyridine-3-carboxamide] | 2 | 100 | 28 | 
O=C(NC(C1CC1)(C1CC1)C(F)(F)C(F)(F)F)c1cn(-c2c(F)cc(F)cc2F)c2nc(N3C[C@@H](O)[C@H](O)C3)c(F)cc2c1=O [Example 208, N-(1,1-dicyclopropyl-2,2,3,3,3-pentafluoropropyl)-7-[(3R,4R)-3,4-dihydroxypyrrolidin-1-yl]-6-fluoro-4-oxo-1-(2,4,6-trifluorophenyl)-1,4-dihydro-1,8-naphthyridine-3-carboxamide] | 1.8 | 100 | 27 | 
O=C(NC(C1CC1)C(F)(F)C(F)(F)F)c1cn(-c2c(F)cc(F)cc2F)c2nc(N3CC(CO)(CO)C3)c(F)cc2c1=O (single isomer, unassigned) [Example 205, 7-[3,3-bis(hydroxymethyl)azetidin-1-yl]-N-[1-cyclopropyl-2,2,3,3,3-pentafluoropropyl]-6-fluoro-4-oxo-1-(2,4,6-trifluorophenyl)-1,4-dihydro-1,8-naphthyridine-3-carboxamide] | 3.1 | 100 | 25 | 
CC(NC(=O)c1cn(-c2c(F)cc(F)cc2F)c2nc(N3CC[C@H](O)C3)c(F)cc2c1=O)C(F)(F)C(F)(F)F (mixture of isomers) [Example 112, 6-Fluoro-7-[(3S)-3-hydroxypyrrolidin-1-yl]-4-oxo-N-[3,3,4,4,4-pentafluorobutan-2-yl]-1-(2,4,6-trifluorophenyl)-1,4-dihydro-1,8-naphthyridine-3-carboxamide] | 4.25 | 100 | 33 | 
CC(NC(=O)c1cn(-c2c(F)cc(F)cc2F)c2nc(N3CCC(O)C(O)C3)c(F)cc2c1=O)C(F)(F)C(F)(F)F (single isomer, unassigned) [Example 182, 7-(3,4-Dihydroxypiperidin-1-yl)-6-fluoro-4-oxo-N-(3,3,4,4,4-pentafluorobutan-2-yl)-1-(2,4,6-trifluorophenyl)-1,4-dihydro-1,8-naphthyridine-3-carboxamide] | 8.8 | 100 | 27 | 
CC[C@H](NC(=O)c1cn(-c2c(F)cc(F)cc2F)c2nc(N3CC[C@H](O)C3)c(F)cc2c1=O)C(F)(F)F [Example 115, 6-Fluoro-7-[(3S)-3-hydroxypyrrolidin-1-yl]-4-oxo-N-[(2S)-1,1,1-trifluorobutan-2-yl]-1-(2,4,6-trifluorophenyl)-1,4-dihydro-1,8-naphthyridine-3-carboxamide] | 6.65 | 98 | 53 | 
CC(C)(NC(=O)c1cn(-c2c(F)cc(F)cc2Cl)c2nc(N3C[C@@H](O)[C@H](O)C3)c(F)cc2c1=O)C(F)(F)F [Example 41, 1-(2-chloro-4,6-difluorophenyl)-7-[(3R,4R)-3,4-dihydroxypyrrolidin-1-yl]-6-fluoro-4-oxo-N-(1,1,1-trifluoro-2-methylpropan-2-yl)-1,4-dihydro-1,8-naphthyridine-3-carboxamide] | 3.3 | 100 | 37 | 
CC(C)(NC(=O)c1cn(-c2c(F)cc(F)cc2F)c2nc(N3C[C@@H](O)[C@H](O)C3)c(F)cc2c1=O)C(F)(F)F [Example 23, 7-[(3R,4R)-3,4-dihydroxypyrrolidin-1-yl]-6-fluoro-4-oxo-N-(1,1,1-trifluoro-2-methylpropan-2-yl)-1-(2,4,6-trifluorophenyl)-1,4-dihydro-1,8-naphthyridine-3-carboxamide] | 5.5 | 100 | 41 | 
